This is an account of results in US11666577B2 (National Institute of Biological Sciences, Beijing, priority 2018, dated 2023).

Where two headings read alike, the source gives them in different places.

One assay has as its system pMLKL. Description: Immunofluorescence staining of pMLKL in HT-29 cells. The class given is cell-based, human. As to conditions: monoclonal anti-pMLKL antibody, Experimental-section numbering. An excerpt:
This is a crucial step in the translocation of MLKL from the cytoplasm to the cell membrane, where it mediates ion influx and/or causes the disruption of cell structures.^[5] To evaluate the mechanism of this series of compounds on MLKL, we detected the status (state of oligomerization and phosphorylation) of MLKL under TSZ stimulation in the presence of compound 12 or 15. […] Next, we evaluated the effects of MLKL inhibitors on the translocation of MLKL from the cytoplasm to the cell membrane. HT-29 cells were treated with TSZ in the presence of RIPA-56, NSA, compound 12, or compound 15 for 6 h. The proteins from cell lysates were separated and the soluble phase and membrane phase were analyzed separately with anti-MLKL and anti-pMLKL antibodies. […] We also performed immunofluorescence staining in HT-29 cells using a monoclonal anti-pMLKL antibody. After TSZ stimulation, large, bright-green fluorescent dots (pMLKL) were present in the plasma membrane. […] Sun, X. Wang, Trends Biochem. Sci 2014, 39, 587-593; bM. Pasparakis, P. Vandenabeele, Nature 2015, 517, 311-320. • 2. N. Holler, R. Zaru, O. Micheau, M. Thome, A. Attinger, S. Valitutti, J.-L. Bodmer, P. Schneider, B. Seed, J. Tschopp, Nat. Immunol. 2000, 1, 489-495. • 3. aS. He, L. Wang, L. Miao, T. Wang, F. Du, L. Zhao, X. Wang, Cell 2009, 137, 1100-1111; bD.-W. Zhang, J. Shao, J. Lin, N. Zhang, B.-J. Lu, S.-C. Lin, M.-Q. Dong, J. Han, Science 2009, 325, 332-336. • 4. L. Sun, H. et al. Cell 2012, 148, 213-227. • 5. aH. Wang, L. Sun, L. Su, J. Rizo, L. Liu, L.-F. Wang, F.-S. Wang, X. Wang, Mol. Cell 2014, 54, 133-146; bZ. Cai, S. Jitkaew, J. Zhao, H.-C. Chiang, S. Choksi, J. Liu, Y. Ward, L.-g. Wu, Z.-G. Liu, Nat. Cell Biol. 2014, 16, 55-65. • 6. aJ. Wu, et al., Cell Res. 2013, 23, 994-1006; bD. Ofengeim, Y. Ito, A. Najafov, Y. Zhang, B. Shan, J. P. DeWitt, J. Ye, X. Zhang, A. Chang, H. Vakifahmetoglu-Norberg, Cell reports 2015, 10, 1836-1849; cM. Pierdomenico, A. Negroni, L. Stronati, R. Vitali, E. Prete, J. Bertin, P. J. Gough, M. Aloi, S. Cucchiara, Am J. Gastroenterol. 2014, 109, 279-287. • 7. […]

In another assay the test system is HT-29 cells. The assay is described as follows: Necroptosis assay (TNF-α/Smac mimetic/z-VAD, TSZ-induced) in HT-29 cells. The class given is cell-based, human. The settings on record: read-out: EC50 (nM), potency in TSZ-induced necroptosis assays in HT-29 cells. In short, it runs like this: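 HT-29 cells were challenged with 20 ng/ml TNF-α, 100 nM Smac mimetic and 20 mM z-VAD while compound was added at the same time (library screen at 10 mM). After 24 h, viability was read as ATP luminescence (CellTiter-Glo) and normalized to DMSO-treated cells; values are means ± SD of duplicates.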

The target in another assay is VEGFR2 (Homo sapiens, UniProt P35968). The settings on record: cited from earlier work.
Chain of VEGFR2 (P35968 20-1356, species assumed): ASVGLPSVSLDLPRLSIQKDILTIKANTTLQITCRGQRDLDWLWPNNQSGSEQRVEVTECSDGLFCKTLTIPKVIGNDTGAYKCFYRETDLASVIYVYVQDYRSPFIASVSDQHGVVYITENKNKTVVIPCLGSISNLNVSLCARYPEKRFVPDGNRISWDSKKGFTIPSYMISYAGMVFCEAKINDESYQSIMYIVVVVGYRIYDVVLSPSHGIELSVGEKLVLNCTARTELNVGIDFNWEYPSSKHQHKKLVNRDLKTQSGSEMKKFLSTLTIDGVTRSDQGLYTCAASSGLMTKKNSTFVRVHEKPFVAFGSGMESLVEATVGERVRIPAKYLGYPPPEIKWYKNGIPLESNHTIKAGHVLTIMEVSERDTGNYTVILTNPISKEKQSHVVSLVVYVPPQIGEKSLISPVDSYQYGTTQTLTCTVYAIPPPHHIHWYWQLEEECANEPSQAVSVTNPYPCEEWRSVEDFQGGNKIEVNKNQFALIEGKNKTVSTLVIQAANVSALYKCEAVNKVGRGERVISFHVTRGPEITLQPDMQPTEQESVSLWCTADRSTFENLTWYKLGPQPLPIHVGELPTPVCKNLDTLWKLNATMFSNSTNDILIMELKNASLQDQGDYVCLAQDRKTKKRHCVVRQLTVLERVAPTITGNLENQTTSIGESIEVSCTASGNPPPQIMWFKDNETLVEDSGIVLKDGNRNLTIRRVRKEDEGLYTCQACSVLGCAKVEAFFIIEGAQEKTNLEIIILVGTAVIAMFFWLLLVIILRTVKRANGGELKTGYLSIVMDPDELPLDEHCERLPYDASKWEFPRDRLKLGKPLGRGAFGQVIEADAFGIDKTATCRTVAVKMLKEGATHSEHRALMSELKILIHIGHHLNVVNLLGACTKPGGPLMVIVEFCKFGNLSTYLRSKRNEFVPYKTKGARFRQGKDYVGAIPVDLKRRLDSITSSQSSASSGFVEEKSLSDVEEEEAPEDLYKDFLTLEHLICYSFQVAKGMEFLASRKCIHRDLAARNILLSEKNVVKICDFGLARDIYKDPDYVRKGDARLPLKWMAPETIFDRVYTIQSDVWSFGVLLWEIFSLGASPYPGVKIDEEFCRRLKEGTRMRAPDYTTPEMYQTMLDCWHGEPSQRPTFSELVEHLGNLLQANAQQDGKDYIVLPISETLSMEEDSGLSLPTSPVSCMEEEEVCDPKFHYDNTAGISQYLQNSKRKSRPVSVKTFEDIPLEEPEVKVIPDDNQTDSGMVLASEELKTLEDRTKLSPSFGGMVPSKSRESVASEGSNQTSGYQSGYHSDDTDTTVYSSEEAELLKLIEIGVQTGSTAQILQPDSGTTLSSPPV
Another assay deals with RIP3 (Homo sapiens, UniProt Q9Y572). Description: RIP3 kinase activity enzymatic assay. It counts as biochemical. The protocol:
(§1) To determine whether the direct target of this series of compounds is MLKL, we performed activity based protein profiling (ABPP). Compound 12, an affinity probe, was incubated with MLKL-flag-HT-29 cell lysates for 2 hours, followed by a click reaction to conjugate the probe to a biotin-tag. The biotin-labeled compound-protein complexes were pulled down and analysed via SDS-PAGE.

A further assay concerns the target T1, RIP1 (Homo sapiens, UniProt Q13546).
T1 sequence (Q13546 1-671): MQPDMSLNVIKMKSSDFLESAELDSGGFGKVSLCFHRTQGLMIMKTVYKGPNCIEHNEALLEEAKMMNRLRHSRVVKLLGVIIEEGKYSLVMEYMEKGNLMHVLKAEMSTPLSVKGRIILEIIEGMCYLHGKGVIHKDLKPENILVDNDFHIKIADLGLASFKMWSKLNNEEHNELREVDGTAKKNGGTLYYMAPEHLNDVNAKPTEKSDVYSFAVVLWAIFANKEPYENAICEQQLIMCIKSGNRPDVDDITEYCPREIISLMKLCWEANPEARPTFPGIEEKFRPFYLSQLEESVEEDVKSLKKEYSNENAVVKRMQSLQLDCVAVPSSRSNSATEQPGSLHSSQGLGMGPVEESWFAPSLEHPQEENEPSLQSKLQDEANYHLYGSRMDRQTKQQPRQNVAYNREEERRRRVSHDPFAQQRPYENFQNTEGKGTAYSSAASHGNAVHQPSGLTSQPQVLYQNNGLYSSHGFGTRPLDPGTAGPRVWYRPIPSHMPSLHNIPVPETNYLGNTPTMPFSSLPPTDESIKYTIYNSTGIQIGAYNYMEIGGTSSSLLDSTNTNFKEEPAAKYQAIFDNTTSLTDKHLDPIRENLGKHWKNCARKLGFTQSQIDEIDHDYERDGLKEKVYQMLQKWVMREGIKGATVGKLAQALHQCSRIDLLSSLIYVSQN
The assay is described as follows: RIP1 kinase activity enzymatic assay. It counts as biochemical. The protocol: as §1

Chain of RIP3 (Q9Y572 whole entry): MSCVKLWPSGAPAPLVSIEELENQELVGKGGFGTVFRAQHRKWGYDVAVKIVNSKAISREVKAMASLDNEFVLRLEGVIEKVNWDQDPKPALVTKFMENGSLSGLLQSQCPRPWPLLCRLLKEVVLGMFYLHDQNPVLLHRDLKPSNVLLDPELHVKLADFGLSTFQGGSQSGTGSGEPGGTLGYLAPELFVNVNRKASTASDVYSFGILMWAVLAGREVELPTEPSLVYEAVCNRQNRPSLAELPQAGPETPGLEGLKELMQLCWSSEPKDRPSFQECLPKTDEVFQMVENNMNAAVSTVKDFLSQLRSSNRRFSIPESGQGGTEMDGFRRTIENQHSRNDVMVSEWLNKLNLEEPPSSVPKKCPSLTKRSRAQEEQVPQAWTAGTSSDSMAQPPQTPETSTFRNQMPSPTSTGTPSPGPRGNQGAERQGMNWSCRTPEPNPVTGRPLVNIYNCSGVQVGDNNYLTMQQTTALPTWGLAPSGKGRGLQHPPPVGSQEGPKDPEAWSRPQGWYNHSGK

`CCC(C)(C)C(=O)N(O)Cc1ccccc1` [RIPA-56]: the “pMLKL immunofluorescence after TSZ stimulation” value (shortened to “pMLKL immunofluorescence”) with pMLKL is “blocked the phosphorylation of MLKL completely”.

For the molecule `CN(c1ccc(NC(=O)Nc2ccc(OC(F)(F)F)cc2)cc1)c1ccnc(Nc2cccc(S(N)(=O)=O)c2)n1` [GW806742X], in the assay on HT-29 cells (Homo sapiens, HT-29, 24 h), the 50% effective concentration (EC50) – broadly, the concentration at which the effect is half-maximal – came out at 589 ± 12 nM. For the same molecule, the “off-target activity against other kinases, including VEGFR2” value at VEGFR2 was “off-target activity”. For the same molecule, the “off-target activity against RIP3” value at RIP3 is reported as “off-target activities”. Also, in the assay on pMLKL, the “pMLKL immunofluorescence” value is given as “blocked the phosphorylation of MLKL completely”. On RIP1, the “off-target activity against RIP1” value is reported as “off-target activities”.

As for `COc1nccnc1NS(=O)(=O)c1ccc(NC(=O)/C=C/c2ccc([N+](=O)[O-])s2)cc1` [NSA, necrosulfonamide, reference compound], in the assay with HT-29 cells (Experimental-section numbering (compound 1 = Series 1 compound 4), necroptosis induced for 24 h, mean of at least three independent analyses), the 50% effective concentration (EC50) was found to be 447 ± 32 nM. For the same molecule, the “pMLKL immunofluorescence” value with pMLKL is reported as “small pMLKL dots were dispersed in the cytoplasm”.
